Residue numbers refer to the chain shown, from its start.
Key:
PBP4 [1] = target: T1, PBP4 (Staphylococcus aureus, UniProt P72355); test: fluorogenic D,D-transpeptidation assay with Rf470DL, dose-response; format: biochemical
T1 sequence (P72355 25-431): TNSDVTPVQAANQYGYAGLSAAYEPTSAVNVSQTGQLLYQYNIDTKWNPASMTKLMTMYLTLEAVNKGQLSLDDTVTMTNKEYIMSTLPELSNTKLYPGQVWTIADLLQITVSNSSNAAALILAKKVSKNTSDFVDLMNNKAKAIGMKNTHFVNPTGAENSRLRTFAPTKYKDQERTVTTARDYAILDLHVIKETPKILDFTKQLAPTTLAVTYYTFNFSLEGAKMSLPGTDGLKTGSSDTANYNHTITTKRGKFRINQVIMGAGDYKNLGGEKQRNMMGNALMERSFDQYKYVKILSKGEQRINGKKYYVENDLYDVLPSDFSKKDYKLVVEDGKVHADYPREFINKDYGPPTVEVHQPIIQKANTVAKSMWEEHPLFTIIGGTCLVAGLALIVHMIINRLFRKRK

PBP4 [2] = target: T2, PBP4 (Staphylococcus aureus, UniProt A0A0H2WY27); test: Nitrocefin hydrolysis; format: biochemical
T2 sequence (A0A0H2WY27 25-431): T1 sequence (P72355 25-431) with L210H

Row | IC50 (PBP4 [1]) [µM] | SMILES | Nitrocefin hydrolysis (β-lactamase activity) competition assay (PBP4 [2])
1 | ~2.34 | CO[C@@]1(NC(=O)Cc2cccs2)C(=O)N2C(C(=O)O)=C(COC(N)=O)CS[C@@H]21 [Cefoxitin] | 
2 |  | O=C(Cc1cccs1)N[C@@H]1C(=O)N2C(C(=O)O)=C(/C=C/c3ccc([N+](=O)[O-])cc3[N+](=O)[O-])CS[C@H]12 [Nitrocefin] | in the presence of Cefoxitin or Carbenicillin, Nitrocefin hydrolysis was strongly inhibited
